Experimental data taken from US9394284B2, “Compounds act at multiple prostaglandin receptors giving a general anti-inflammatory response” (Allergan, Inc., priority 2010, dated 2016).

Experiments:
Type in all cases: cell-based
[1] = biological target: T1, human prostanoid FP receptor (Homo sapiens, UniProt P43088); assay: FLIPR Ca2+ signaling antagonist assay, FP receptor stable cell line; conditions: HEK-293 EBNA stable cell line; standard agonist 17-phenyl-PGF2α; NA = inactive (no antagonism or Kb 10,000 nM); PAg, Ag not defined
T1 construct: expressed in transfected cells
T1 sequence (P43088 whole entry): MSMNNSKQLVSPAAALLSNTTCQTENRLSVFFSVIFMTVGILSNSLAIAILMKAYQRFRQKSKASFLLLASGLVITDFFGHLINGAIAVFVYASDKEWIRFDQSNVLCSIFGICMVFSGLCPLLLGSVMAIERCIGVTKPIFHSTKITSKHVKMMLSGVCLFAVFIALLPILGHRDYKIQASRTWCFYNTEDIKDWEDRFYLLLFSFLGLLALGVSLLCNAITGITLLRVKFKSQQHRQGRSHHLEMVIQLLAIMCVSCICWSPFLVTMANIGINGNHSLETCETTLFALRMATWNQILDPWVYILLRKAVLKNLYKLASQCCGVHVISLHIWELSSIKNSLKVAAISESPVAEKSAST
Outline: (§1)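 Peak Fluo-4 fluorescence (ex 470–495, em 515–575 nm) was read for 3.5 min on FLIPR after agonist injection and expressed relative to 10^−6 M standard agonist. Cells were HEK-293 EBNA transfectants. Test compound was added 4.5 min beforehand at 0.1–30 μM, or 0.067–1 μM for TP.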

[2] = biological target: T2, human prostanoid DP1 receptor (Homo sapiens, UniProt Q13258); assay: FLIPR Ca2+ signaling antagonist assay, DP1 receptor stable cell line; conditions: HEK-293 EBNA stable cell line; standard agonist BW 245C; NA = inactive (no antagonism or Kb 10,000 nM); PAg, Ag not defined
T2 construct: expressed in transfected cells
T2 sequence (Q13258 1-359): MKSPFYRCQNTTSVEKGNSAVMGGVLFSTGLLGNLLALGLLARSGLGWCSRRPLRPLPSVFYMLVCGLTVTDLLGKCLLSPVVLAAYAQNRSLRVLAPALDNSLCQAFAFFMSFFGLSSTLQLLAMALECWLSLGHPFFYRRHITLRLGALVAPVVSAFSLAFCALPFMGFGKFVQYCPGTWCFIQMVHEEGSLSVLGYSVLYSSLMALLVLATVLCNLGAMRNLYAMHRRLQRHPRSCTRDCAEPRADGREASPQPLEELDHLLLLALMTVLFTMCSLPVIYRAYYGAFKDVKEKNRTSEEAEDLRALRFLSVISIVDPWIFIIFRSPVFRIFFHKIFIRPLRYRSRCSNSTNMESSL
Outline: as §1

[3] = biological target: T3, human prostanoid EP2 receptor (Homo sapiens, UniProt P43116); assay: FLIPR Ca2+ signaling antagonist assay, EP2 receptor stable cell line; conditions: HEK-293 EBNA stable cell line; standard agonist PGE2; NA = inactive (no antagonism or Kb 10,000 nM); PAg, Ag not defined
T3 construct: expressed in transfected cells
T3 sequence (P43116 whole entry): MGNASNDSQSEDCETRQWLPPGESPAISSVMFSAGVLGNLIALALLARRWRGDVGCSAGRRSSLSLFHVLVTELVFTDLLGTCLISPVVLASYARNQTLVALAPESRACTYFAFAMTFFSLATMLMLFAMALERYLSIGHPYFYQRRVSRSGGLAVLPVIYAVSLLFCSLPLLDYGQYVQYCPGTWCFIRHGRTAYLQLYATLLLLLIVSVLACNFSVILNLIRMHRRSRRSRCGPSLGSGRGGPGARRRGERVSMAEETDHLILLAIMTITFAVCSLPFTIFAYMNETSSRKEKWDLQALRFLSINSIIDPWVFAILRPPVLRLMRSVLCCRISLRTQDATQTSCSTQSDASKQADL
Protocol: The above compounds were tested for PG antagonist activity as follows using human recombinant prostanoid receptor (DP1, EP1-4, FP, IP and TP) stable cell lines:
In order to measure the response of Gs and Gi coupled prostanoid receptors as a Ca^2+ signal, chimeric G protein cDNAs were used. Stable cell lines over-expressing human prostanoid DP1, EP1-4, FP, IP, and TP receptors were established as follows:
Briefly, human prostanoid DP1, EP2, and EP4 receptor cDNAs were co-transfected with chimeric Gqs cDNA containing a haemagglutanin (HA) epitope; human prostanoid EP3 receptors were co-transfected with chimeric Gqi-HA; human EP1, FP, IP, and TP receptor cDNAs were expressed with no exogenous G-proteins. Gqs and Gqi chimeric cDNAs (Molecular Devices, Sunnyvale, Calif., U.S.A.), as well as cDNAs of prostanoid receptors, were cloned into a pCEP4 vector with a hygromycin B selection marker. Transfection into HEK-293 EBNA (Epstein-Barr virus nuclear antigen) cells was achieved by the FuGENE 6 transfection Reagent (Roche Applied Science, Indianapolis, Ind., USA). Stable transfectants were selected according to hygromycin resistance. Because Gqs and Gqi contained an HA epitope, G-protein expression was detected by Western blotting analysis using anti-mouse HA monoclonal antibody and horseradish peroxidase (HRP)-conjugated secondary antibody, while functional expression of prostanoid receptors was detected by FLIPR screening (Matias et al., 2004). These stable cell lines were validated using previously published antagonists at 10 μM against serial dilutions of standard agonists by FLIPR functional assays for Ca^2+ Signaling (as described below).
Ca^2+ signaling studies were performed using a FLIPR TETRA system (Molecular Devices, Sunnyvale, Calif., USA) in the 384-format. This is a high-throughput instrument for cell-based assays to monitor Ca^2+ signaling associated with GPCRs and ion channels. Cells were seeded at a density of 5×10^4 cells/well in BioCoat poly-D-lysine coated, black wall, clear bottom 384-well plates (BD Biosciences, Franklin lakes, NJ, USA) and allowed to attach overnight in an incubator at 37° C. The cells were then washed twice with HBSS-HEPES buffer (Hanks' balanced salt solution without bicarbonate and phenol red, 20 mM HEPES, pH 7.4) using an ELx405 Select CW Microplate Washer (BioTek, Winooski, Vt., USA). After 60 min of dye-loading in the dark using the Ca^2+-sensitive dye Fluo-4AM (Invitrogen, Carlsbad, Calif., USA), at a final concentration of 2×10^−6M, the plates were washed 4 times with HBSS-HEPES buffer to remove excess dye and leaving 50 μl of buffer in each well. The plates were then placed in the FLIPR TETRA instrument and allowed to equilibrate at 37° C. AGN-211377 was added in a 25 μl volume to each well to give final concentrations of 0.1 μM, 0.3 μM, 1 μM, 3 μM, 10 μM, and 30 μM; or 0.067 μM, 0.1 μM, 0.2 μM, 0.3 μM, 0.67 μM, and 1 μM for cells over-expressing TP receptors. After 4.5 minutes, a 7-point serial dilution of the standard agonist for the corresponding receptor, in a 25 μl volume was injected at the final concentrations from 10^−11M to 10^−5M in 10-fold serial dilution increments for cells expressing human recombinant DP1, EP1, EP2, EP3, EP4, FP, and IP receptors. The dose range for the standard agonist for human recombinant TP receptors was from 10^−12 M to 10^−6 M. HBSS-HEPES buffer was used as the negative control for the standard agonists. Cells were excited with LED (light emitting diode) excitation at 470-495 nm and emission was measured through an emission filter at 515-575 nm. Assay plates were read for 3.5 minutes using the FLIPR^TETRA. The peak increase in fluorescence intensity was recorded for each well. On each plate, negative controls, dose response of positive controls, and co-treatments of antagonist-agonist for each dose were in triplicates.
Standard agonists were as follows: DP=BW 245C, EP1-EP4=PGE2, FP=17-phenyl-PGF2α, IP=Cicaprost, and TP=U-46619. […]

[4] = biological target: T4, human prostanoid TP receptor (Homo sapiens, UniProt P21731); assay: FLIPR Ca2+ signaling antagonist assay, TP receptor stable cell line; conditions: HEK-293 EBNA stable cell line; standard agonist U-46619; NA = inactive (no antagonism or Kb 10,000 nM); PAg, Ag not defined
T4 construct: expressed in transfected cells
T4 sequence (P21731 1-343): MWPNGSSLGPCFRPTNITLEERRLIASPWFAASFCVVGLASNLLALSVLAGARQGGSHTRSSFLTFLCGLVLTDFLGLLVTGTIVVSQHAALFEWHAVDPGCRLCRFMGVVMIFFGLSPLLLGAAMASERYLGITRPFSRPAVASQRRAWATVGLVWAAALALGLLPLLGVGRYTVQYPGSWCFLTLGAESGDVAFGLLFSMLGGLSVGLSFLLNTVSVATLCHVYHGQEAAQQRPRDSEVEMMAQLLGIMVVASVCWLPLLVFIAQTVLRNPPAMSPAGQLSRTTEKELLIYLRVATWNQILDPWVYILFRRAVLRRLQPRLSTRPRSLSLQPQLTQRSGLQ
Outline: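 HEK-293 EBNA cells stably expressing receptor (EP3 co-expressed with chimeric Gqi; EP1, IP, TP without exogenous G protein), Fluo-4 loaded, read on FLIPR at 37° C. Antagonist added 4.5 min before standard agonist (EP1/EP3 PGE2, IP cicaprost 10^−11–10^−5 M; TP U-46619 10^−12–10^−6 M); antagonist 0.1–30 μM, TP 0.067–1 μM; peak fluorescence relative to 10^−6 M agonist.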

| SMILES | Kb [1] | Kb [2] | TP (FLIPR) Kb [4] | Kb [3] | Kb [4] | FP (FLIPR) Kb [1] |
| --- | --- | --- | --- | --- | --- | --- |
| CCC(CC)COc1ccc(Cl)cc1Cn1nc(CC(C)C(=O)O)cc1C (racemic) [Example 68, 3-{1-[5-Chloro-2-(2-ethyl-butoxy)-benzyl]-5-methyl-1H-pyrazol-3-yl}-2-methyl-propionic acid] | 400 nM | 260 nM | – | 45 nM | 16 nM | – |
| CCCCC(CC)COc1ccc(Br)cc1Cn1nc(CCC(=O)O)cc1C (stereo not shown) [Example 6, 3-[1-(5-Bromo-2-(2-ethyl-hexyloxy)-benzyl)-5-methyl-1H-pyrazol-3-yl]-propionic acid] | 400 nM | 180 nM | – | – | 10 nM | – |
| CCC(CC)COc1ccc(Br)cc1Cn1nc(CCC(=O)NS(=O)(=O)C(F)(F)F)cc1C [Example 17, N-(3-{1-[5-Bromo-2-(2-ethyl-butoxy)-benzyl]-5-methyl-1H-pyrazol-3-yl}-propionyl)-C,C,C-trifluoro-methanesulfonamide] | 400 nM | 200 nM | – | – | < 1 nM | – |
| Cc1cc(CCC(=O)NS(=O)(=O)C(F)(F)F)nn1Cc1cc(Br)ccc1OCC(C)C [Example 19, N-(3-{1-[5-Bromo-2-isobutoxybenzyl]-5-methyl-1H-pyrazol-3-yl}-propionyl)-C,C,C-trifluoro-methanesulfonamide] | 220 nM | 200 nM | – | – | 1 nM | – |
| CCC(CC)COc1ccc(Br)cc1Cn1nc(CCC(=O)O)cc1C(C)C [Example 55, 3-{1-[5-Bromo-2-(2-ethyl-butoxy)-benzyl]-5-isopropyl-1H-pyrazol-3-yl}-propionic acid] | 110 nM | 540 nM | – | – | 250 nM | – |
| CCCc1cc(CCC(=O)O)nn1Cc1cc(Br)ccc1OCC(CC)CC [Example 56, 3-{1-[5-Bromo-2-(2-ethyl-butoxy)-benzyl]-5-propyl-1H-pyrazol-3-yl}-propionic acid] | 900 nM | 800 nM | – | – | 70 nM | – |
| CCC(CC)COc1ccc(Br)cc1Cn1nc(CCC(=O)O)cc1C(C)(C)C [Example 57, 3-{1-[5-Bromo-2-(2-ethyl-butoxy)-benzyl]-5-tert-butyl-1H-pyrazol-3-yl}-propionic acid] | 500 nM | 1600 nM | – | – | 500 nM | – |
| CCC(CC)COc1ccc(Br)cc1Cn1nc(CCC(=O)O)cc1C(F)(F)F [Example 58, 3-{1-[5-Bromo-2-(2-ethyl-butoxy)-benzyl]-5-trifluororomethyl-1H-pyrazol-3-yl}-propionic acid] | – | 60 nM | – | – | 150 nM | PAg |
| Cc1cc(CC(C)(C)C(=O)O)nn1Cc1cc(Br)ccc1OCC1CCCC1 [Example 71, 3-{1-[5-Bromo-2-(2-cyclopentylmethoxy)-benzyl]-5-methyl-1H-pyrazol-3-yl}-2,2-dimethyl-propionic acid] | 200 nM | 900 nM | – | – | 8 nM | – |
| Cc1cc(CCC(=O)O)nn1Cc1cc(Cl)ccc1C#CC1CCCC1 [Example 73, 3-{1-[5-Chloro-2-cyclopentylethynyl-benzyl]-5-methyl-1H-pyrazol-3-yl}-propionic acid] | 50 nM | 700 nM | – | – | 2 nM | – |

Further lines, with some results ahead:

| Kb [1] | Kb [2] | TP (FLIPR) Kb [4] | SMILES | Kb [3] | Kb [4] | FP (FLIPR) Kb [1] |
| --- | --- | --- | --- | --- | --- | --- |
| 90 nM | 110 nM | – | CCCC(C)COc1ccc(Br)cc1Cn1nc(CCC(=O)O)cc1C (stereo not shown) [Example 8, 3-[1-(5-Bromo-2-(2-methyl-pentyloxy)-benzyl)-5-methyl-1H-pyrazol-3-yl]-propionic acid] | – | 1 nM | – |
| 100 nM | 900 nM | – | Cc1cc(CCC(=O)O)nn1Cc1cc(Br)ccc1OCC1(C(F)(F)F)CCC1 [Example 13, 3-[1-(5-Bromo-2-(1-trifluoromethylcyclobutylmethoxy)-benzyl)-5-methyl-1H-pyrazol-3-yl]-propionic acid] | – | 10 nM | – |
| 400 nM | 1330 nM | – | Cc1cc(CCC(=O)NS(=O)(=O)CC(F)(F)F)nn1Cc1cc(Cl)ccc1OCc1ccc(Cl)cc1 [Example 25, 2,2,2-trifluoroethanesulfonic acid-(3-[1-(5-Chloro-2-(4-chlorobenzyloxy)benzyl)-5-methyl-1H-pyrazol-3-yl]-propionyl)amide] | – | < 1 nM | – |
| 140 nM | 500 nM | PAg | Cc1cc(CCC(=O)O)nn1Cc1cc(Cl)ccc1OCc1ccc(Cl)cc1Cl [Example 26, 3-[1-(5-Chloro-2-(2,4-dichlorobenzyloxy)benzyl)-5-methyl-1H-pyrazol-3-yl]-propionic acid] | – | – | – |
| 90 nM | 200 nM | PAg | Cc1cc(CCC(=O)NS(=O)(=O)C(F)(F)F)nn1Cc1cc(Cl)ccc1OCc1ccc(Cl)cc1Cl [Example 27, N-(3-[1-(5-Chloro-2-(2,4-dichlorobenzyloxy)benzyl)-5-methyl-1H-pyrazol-3-yl]-propionyl)C,C,C-trifluoromethanesulfonamide] | – | – | – |
| 1500 nM | 350 nM | – | Cc1cc(CCC(=O)NS(=O)(=O)C(F)(F)F)nn1Cc1cc(Cl)ccc1CCC1CCCC1 [Example 75] | – | 12 nM | – |
